# In patent US7939569B1, “Aniline analogs as glycogen synthase activators” (Hoffmann-La Roche Inc., priority 2009, dated 2011):
# Tested on: glycogen synthase
# Test: Glycogen Synthase (GS) Assay
# Format: biochemical
# Conditions: for EC50: compound concentration needed to give 50% maximum activation; for GS SC200: compound concentration needed to stimulate 200% of the enzyme activity
# Method: Twelve μL per well of substrate solution containing glycogen (4.32 mg/'ml), 2.67 mM UDP-glucose, 21.6 mM phospho(enol)pyruvate and 2.7 mM NADH in 30 mM glycylglycine, pH 7.3 buffer was added into a polystyrene 384-well assay plate (BD Biosciences).
# Compound solutions (8 μL/well) at various concentrations (0-300 μM) were added to the assay plate (columns 5-24). Compound solution contains 30 mM glycylglycine, pH 7.3, 40 mM KCl, 20 mM MgCl2, 9.2% DMSO, with (columns 15-24) or without (columns 5-14) 20 mM glucose 6-phosphate.
# Enzyme solution (12 μL/well) containing glycogen synthase (16.88 μg/ml), pyruvate kinase (0.27 mg/ml), lactate dehydrogenase (0.27 mg/ml) in 50 mM Tris-HCl, pH 8.0, 27 mM DTT and bovine serum albumin (BSA, 0.2 mg/ml) was added to the assay plate (columns 3-24). As a blank control, enzyme solution without glycogen synthase was added into the top half wells of columns 1-2. To the bottom half wells of columns 1-2 were added a known activator, glucose 6-phosphate (at final concentration 5 mM) in addition to the enzyme solution. The reaction mixture was incubated at room temperature. The assay plate was then read for absorbance at 340 nm on an Envision reader every 3 minutes up to a total of 15 minutes.
# The enzyme activity (with or without compound) was calculated by the reaction rate and represented by the optical density change (SOD) per minute. Percent stimulation of glycogen synthase activity by a compound at various concentrations was calculated by the following formula: % stimulation=100*Rs/Rt, Where Rs is the reaction rate of the enzyme in the presence of compound and Rt is the reaction rate of the enzyme in the absence of compound.
# SC200 is defined as the compound concentration that is needed to stimulate 200% of the enzyme activity. EC50 is defined as the compound concentration that is needed to give 50% maximum activation.
Compound,EC50 [µM],GS SC200 [µM]
"CS(=O)(=O)Nc1cccc(COc2ccc(-c3cc(F)c(F)cc3F)cc2)c1 [Example 10, N-[3-(2′,4′,5′-Trifluoro-biphenyl-4-yloxymethyl)-phenyl]-methanesulfonamide]",5.71,2.41
"O=C(O)CCC(=O)Nc1cccc(COc2ccc(-c3ccc(F)cc3F)cc2)c1 [Example 1, N-[3-(2′,4′-Difluoro-biphenyl-4-yloxymethyl)-phenyl]-succinamic acid]",6.96,2.69
"O=C(O)C1CCC[C@@H]1C(=O)Nc1cccc(COc2ccc(-c3ccc(F)cc3F)cc2)c1 (stereo in doubt) [Example 4, (1S,2S)-2-[3-(2′,4′-Difluoro-biphenyl-4-yloxymethyl)-phenylcarbamoyl]-cyclopentanecarboxylic acid]",6.15,2.09
"COc1cc(F)c(F)cc1-c1ccc(OCc2cccc(NS(C)(=O)=O)c2)cc1 [Example 11, N-[3-(4′,5′-Difluoro-2′-methoxy-biphenyl-4-yloxymethyl)-phenyl]-methanesulfonamide]",2.75,1.1
"O=C(Nc1cccc(COc2ccc(-c3ccc(F)cc3F)cc2)c1)[C@H]1CCC[C@H]1C(=O)O (racemic) [Example 2, (trans)-2-[3-(2′,4′-Difluoro-biphenyl-4-yloxymethyl)-phenylcarbamoyl]-cyclopentanecarboxylic acid]",5.93,3.24
"O=C(O)[C@H]1CCC[C@H]1C(=O)Nc1cccc(COc2ccc(-c3ccc(F)cc3F)cc2)c1 (stereo in doubt) [Example 6, (1S,2R)-2-[3-(2′,4′-Difluoro-biphenyl-4-yloxymethyl)-phenylcarbamoyl]-cyclopentanecarboxylic acid]",3.14,0.77

# The remaining compounds from weak to strong by EC50, led by results:
EC50 [µM],Compound,GS SC200 [µM]
6.37,"COc1cc(F)c(F)cc1-c1ccc(OCc2cccc(N3CCC[C@H]3CC(=O)O)c2)cc1 [Example 8, {(S)-1-[3-(4′,5′-Difluoro-2′-methoxy-biphenyl-4-yloxymethyl)-phenyl]-pyrrolidin-2-yl}-acetic acid]",2.43
4.4,"O=C(Nc1cccc(COc2ccc(-c3ccc(F)cc3F)cc2)c1)C1CCC[C@H]1C(=O)O (stereo in doubt) [Example 3, (1R,2R)-2-[3-(2′,4′-Difluoro-biphenyl-4-yloxymethyl)-phenylcarbamoyl]-cyclopentanecarboxylic acid]",1.3
3.71,"COc1cc(F)c(F)cc1-c1ccc(OCc2cccc(N3CCC[C@H]3C(=O)O)c2)cc1 [Example 7, (S)-1-[3-(4′,5′-Difluoro-2′-methoxy-biphenyl-4-yloxymethyl)-phenyl]-pyrrolidine-2-carboxylic acid]",0.7
2.84,"O=C(Nc1cccc(COc2ccc(-c3ccc(F)cc3F)cc2)c1)[C@H]1CCC[C@H]1C(=O)O [Example 5, (1R,2S)-2-[3-(2′,4′-Difluoro-biphenyl-4-yloxymethyl)-phenylcarbamoyl]-cyclopentanecarboxylic acid]",0.65
1.48,"O=S(=O)(Nc1cccc(COc2ccc(-c3cc(F)c(F)cc3F)cc2)c1)C(F)(F)F [Example 12, C,C,C-Trifluoro-N-[3-(2′,4′,5′-trifluoro-biphenyl-4-yloxymethyl)-phenyl]methanesulfonamide]",0.95
1.02,"COc1cc(F)c(F)cc1-c1ccc(OCc2cccc(N(CC(=O)O)C(C)=O)c2)cc1 [Example 9, {Acetyl-[3-(4′,5′-difluoro-2′-methoxy-biphenyl-4-yloxymethyl)-phenyl]-amino}-acetic acid]",0.33
0.44,"COc1cc(F)c(F)cc1-c1ccc(OCc2cccc(NS(=O)(=O)C(F)(F)F)c2)cc1 [Example 13, N-[3-(4′,5′-Difluoro-2′-methoxy-biphenyl-4-yloxymethyl)-phenyl]-C,C,C-trifluoromethanesulfonamide]",0.18
